Data: patent US20230111853A1, “COMPOUNDS MODULATING PROTEIN RECRUITMENT AND/OR DEGRADATION” (Orionis Biosciences, Inc., priority 2019, published 2023)

Tested on: IKZF1, ASS1 and SALL4 recruitment to CRBN
Assay: Recruitment assessment: recruitment of any tested substrate from among IKZF1, ASS1 and SALL4
Assay type: cell-based
Settings: any tested substrate at any tested compound concentration
Procedure: In this experimental set-up, cells were transfected with a construct encoding a CRBN-fusion protein and another one encoding a substrate-fusion protein. Test compound activity was assessed with increasing concentrations of test compounds (dose-response studies) to monitor the ability to promote CRBN-ligand-induced protein interaction.
Full size proteins were fused for each of the target proteins tested, except in the case of IKZF1 where isoform 7 was used. For the study, the following were used: IKZF1 recruitment: pSEL-CRBN+pMG1-IKZF1(isoform 7); ASS1 recruitment: pSEL-CRBN+pMG1-ASS1. SALL4 recruitment: pSEL-SALL4+pMG1-CRBN. […] Luciferase activity was measured 24 hours after test compound treatment using the Luciferase Assay System kit (PROMEGA, Madison, Wis.) with an Ensight plate reader (PERKIN ELMER LIFE SCIENCES, Waltham, Mass.). Data points depicted fold induction of the average luciferase activity of triplicate samples from EPO+test compound treated cells versus EPO only treated cells. Error bars represent standard deviations. Curves were fit using 4-parameter nonlinear regression in […] PRISM software.

Compound | Recruitment Assessment
Cn1ncc2c(Nc3ccc4c(c3)C(=O)N(C3CCC(=O)NC3=O)C4)ncnc21 (stereo not shown) [C80383, 3-[6-[(1-methylpyrazolo[3,4-d]pyrimidin-4-yl)amino]-1-oxo-isoindolin-2-yl]piperidine-2,6-dione] | FALSE
Cc1cc(Nc2ccc3c(c2)C(=O)N(C2CCC(=O)NC2=O)C3)ncn1 (stereo not shown) [C80384, 3-[6-[(6-methylpyrimidin-4-yl)amino]-1-oxo-isoindolin-2-yl] piperidine-2,6-dione] | FALSE
O=C1CCC(N2Cc3ccc(Nc4[nH]cnc5nccc4-5)cc3C2=O)C(=O)N1 (stereo not shown) [C80385, 3-[1-oxo-6-(3H-pyrrolo[2,3-d]pyrimidin-4-ylamino)isoindolin-2-yl] piperidine-2,6-dione] | FALSE
O=C1CCC(N2Cc3ccc(Nc4cnc5ccccc5n4)cc3C2=O)C(=O)N1 (stereo not shown) [C80386, 3-[1-oxo-6-(quinoxalin-2-ylamino)isoindolin-2-yl]piperidine-2,6-dione] | FALSE
Cn1ccnc(Nc2ccc3c(c2)C(=O)N(C2CCC(=O)NC2=O)C3)c1=O (stereo not shown) [C80387, 3-[6-[(4-methyl-3-oxo-pyrazin-2-yl)amino]-1-oxo-isoindolin-2-yl] piperidine-2,6-dione] | FALSE
N#Cc1ccc(Nc2ccc3c(c2)C(=O)N(C2CCC(=O)NC2=O)C3)nn1 (stereo not shown) [C80389, 6-[[2-(2,6-dioxo-3-piperidyl)-3-oxo-isoindolin-5-yl]amino]pyridazine-3-carbonitrile] | FALSE
Cc1cc2[nH]cnc(Nc3ccc4c(c3)C(=O)N(C3CCC(=O)NC3=O)C4)c-2n1 (stereo not shown) [C80390, 3-[6-[(6-methylpyrrolo[3,2-d]pyrimidin-4-yl)ammo]-1-oxo-isoindolin-2-yl]piperidine-2,6-dione] | TRUE
O=C1CCC(N2Cc3ccc(NC(=O)c4ccc5ccccc5n4)cc3C2=O)C(=O)N1 (stereo not shown) [C80392, N-[2-(2,6-dioxo-3-piperidyl)-3-oxo-isoindolin-5-yl]quinoline-2-carboxamide] | FALSE
O=C1CCC(N2Cc3ccc(NC(=O)c4ccc5cnccc5n4)cc3C2=O)C(=O)N1 (stereo not shown) [C80393, N-[2-(2,6-dioxo-3-piperidyl)-3-oxo-isoindolin-5-yl]-1,6-naphthyridine-2-carboxamide] | FALSE
O=C1CCC(N2Cc3ccc(NC(=O)C4=C5C=CN=C5N=CC4)cc3C2=O)C(=O)N1 (stereo not shown) [C80395, N-[2-(2,6-dioxo-3-piperidyl)-3-oxo-isoindolin-5-yl]-5H-pyrrolo [2,3-b]pyridine-4-carboxamide] | TRUE
NC(=O)CNc1ccc2c(c1)C(=O)N(C1CCC(=O)NC1=O)C2 (stereo not shown) [C84961, 2-[[2-(2,6-dioxo-3-piperidyl)-3-oxo-isoindolin-5-yl]amino]acetamide] | FALSE
O=C1CCC(N2Cc3ccc(NCC(=O)NC4CC4)cc3C2=O)C(=O)N1 (stereo not shown) [C84963, N-cyclopropyl-2-[[2-(2,6-dioxo-3-piperidyl)-3-oxo-isoindolin-5-yl]amino]acetamide] | FALSE
CN(C)C(=O)CNc1ccc2c(c1)C(=O)N(C1CCC(=O)NC1=O)C2 (stereo not shown) [C84964, 2-[[2-(2,6-dioxo-3-piperidyl)-3-oxo-isoindolin-5-yl]amino]-N,N-dimethyl-acetamide] | FALSE
O=C(CNc1ccc2c(c1)C(=O)N(C1CCC(=O)NC1=O)C2)NCc1ccccc1 (stereo not shown) [C84966, N-benzyl-2-[[2-(2,6-dioxo-3-piperidyl)-3-oxo-isoindolin-5-yl]amino]acetaimde] | FALSE
CC(=O)NCC(=O)Nc1ccc2c(c1)C(=O)N(C1CCC(=O)NC1=O)C2 (stereo not shown) [C84967, 2-acetamido-N-[2-(2,6-dioxo-3-piperidyl)-3-oxo-isoindolin-5-yl]acetamide] | TRUE
O=C1CCC(N2Cc3ccc(N4CCNC4=O)cc3C2=O)C(=O)N1 (stereo not shown) [C84971, 3-[1-oxo-6-(2-oxoimidazolidin-1-yl)isoindolin-2-yl]piperidine-2,6-dione] | FALSE

Compound | Recruitment Assessment
O=C1CCC(N2Cc3ccc(NCC(=O)N4CCc5ccccc5C4)cc3C2=O)C(=O)N1 (stereo not shown) [C95329, 3-[6-[[2-(3,4-dihydro-1H-isoquinolin-2-yl)-2-oxo-ethyl]amino]-1-oxo-isoindolin-2-yl]piperidine-2,6-] | FALSE
O=C1CCC(N2Cc3ccc(NCC(=O)N4Cc5ccccc5C4)cc3C2=O)C(=O)N1 (stereo not shown) [C95330, 3-[6-[(2-isoindolin-2-yl-2-oxo-ethyl)amino]-1-oxo-isoindolin-2-yl] piperidine-2,6-dione] | FALSE
CN(Cc1cnn(C)c1)C(=O)CNc1ccc2c(c1)C(=O)N(C1CCC(=O)NC1=O)C2 (stereo not shown) [C95333] | FALSE
O=C1CCC(N2Cc3ccc(NCC(=O)N4CC5COCC5C4)cc3C2=O)C(=O)N1 (stereo not shown) [C95334, 3-[6-[[2-(1,3,3a,4,6,6a-hexahydrofuro[3,4-c]pyrrol-5-yl)-2-oxo-ethyl]amino]-1-oxo-isoindolin-2-yl]piperidine-2.6-dione] | FALSE
CC1Cc2ccccc2N1C(=O)CNc1ccc2c(c1)C(=O)N(C1CCC(=O)NC1=O)C2 (stereo not shown) [C95336, 3-[6-[[2-(2-methylindolin-1-yl)-2-oxo-ethyl]amino]-1-oxo-isoindolin-2-yl]piperidine-2,6-dione] | FALSE
CN(CC1CC1)C(=O)CNc1ccc2c(c1)C(=O)N(C1CCC(=O)NC1=O)C2 (stereo not shown) [C95338, N-(cyclopropylmethyl)-2-[[2-(2,6-dioxo-3-piperidyl)-3-oxo-isoindolin-5-yl]amino]-N-methyl-acetamide] | FALSE
C=CCC1c2ccccc2C(=O)N1C1CCC(=O)NC1=O (stereo not shown) [C96413, 3-(1-allyl-3-oxo-isoindolin-2-yl)piperidine-2,6-dione] | FALSE
CN(C)c1ccc2c(c1)C(=O)N(C1CCC(=O)NC1=O)C2 (stereo not shown) [C96622, 3-[6-(dimethylamino)-1-oxo-isoindolin-2-yl]piperidine-2,6-dione] | FALSE
CC(C)(C)OC(=O)CC1c2ccccc2C(=O)N1C1CCC(=O)NC1=O (stereo not shown) [C98053, t-butyl 2-[2-(2,6-dioxo-3-piperidyl)-3-oxo-isoindolin-1-yl]acetate] | FALSE
O=C1CC=CC(C(=O)NC2CCC(=O)NC2=O)=N1 (stereo not shown) [C98696, N-(2,6-dioxo-3-piperidyl)-2-oxo-3H-pyridine-6-carboxamide] | FALSE
O=C1CCC(N2Cc3cccc([N+](=O)[O-])c3C2=O)C(=O)N1 (stereo not shown) [C99884, 3-(7-nitro-1-oxo-isoindolin-2-yl)piperidine-2,6-dione] | FALSE
Cc1nc2cccc(N)c2c(=O)n1C1CCC(=O)NC1=O (stereo not shown) [CC-122, 3-(5-amino-2-methyl-4-oxo-quinazolin-3-yl)piperidine-2,6-dione, reference compound] | TRUE
O=C1CC[C@H](N2Cc3c(OCc4ccc(CN5CCOCC5)cc4)cccc3C2=O)C(=O)N1 [CC-220, (3S)-3-[4-[[4-(morpholinomethyl)phenyl]methoxy]-1-oxo-isoindolin-2-yl]piperidine-2,6-dione, reference compound] | TRUE
Nc1cccc2c1C(=O)N(C1CCC(=O)NC1=O)C2=O (stereo not shown) [POM, 4-amino-2-(2,6-dioxo-3-piperidyl)isoindoline-1,3-dione, reference compound] | TRUE
O=C1CCC(N2C(=O)c3ccccc3C2=O)C(=O)N1 (stereo not shown) [THL, Thalidomide, reference compound] | TRUE
